Patent publication US20260027108A1, “PHARMACEUTICAL COMPOSITION OF HETEROARYL DERIVATIVE AND MEDICAL USE THEREOF” (Haisco Pharmaceutical Group Co., Ltd., priority 2022, published 2026)
Read-outs that look alike come from different tables or passages of the source.

Key:
[1] = test system: MDA-MB-436 subcutaneous transplanted tumor; assay: Mouse MDA-MB-436 subcutaneous in vivo transplanted tumor model; settings: Day 0-Day 10: 1 mg/kg, Day 11-Day 28: 0.1 mg/kg, once a day
Experimental: Human breast cancer MDA-MB-436 cells were placed in Leibovitz's L-15 medium (supplemented with 10 μg/mL insulin, 16 μg/mL glutathione, 10% fetal bovine serum and 1% penicillin-streptomycin solution) and cultured at 37° C. Conventional digestion treatment with trypsin was performed twice a week for passage. When the cell saturation was 80%-90%, and the number reached the requirement, the cells were harvested, counted, and inoculated. BALB/c nude mice (from Beijing Vital River Laboratory Animal Technology Co., Ltd.) were subcutaneously inoculated with 0.2 mL (10×10^6) of MDA-MB-436 cells (plus matrigel, with the volume ratio of 1:1) on the right back. When the average tumor volume reached about 180 mms, grouping and administration were performed (marked as Day 0). […] The administration frequency was once a day, the administration cycle was 29 days, and the drug withdrawal observation period was set to 14 days. After grouping, the tumor diameter was measured twice a week with a vernier caliper. The formula for calculating the tumor volume was: V=0.5×a×b^2, where a and b represented the long and short diameters of the tumor, respectively.

PARP1 enzyme = PARP1 enzyme (Homo sapiens (Human), UniProt P09874); assay: PARP1 enzyme activity test (chemiluminescence kit, BPS Bioscience); assay type: biochemical; settings: read-out: PARP-1 enzyme activity IC50
Sequence of PARP1 enzyme (P09874 whole entry): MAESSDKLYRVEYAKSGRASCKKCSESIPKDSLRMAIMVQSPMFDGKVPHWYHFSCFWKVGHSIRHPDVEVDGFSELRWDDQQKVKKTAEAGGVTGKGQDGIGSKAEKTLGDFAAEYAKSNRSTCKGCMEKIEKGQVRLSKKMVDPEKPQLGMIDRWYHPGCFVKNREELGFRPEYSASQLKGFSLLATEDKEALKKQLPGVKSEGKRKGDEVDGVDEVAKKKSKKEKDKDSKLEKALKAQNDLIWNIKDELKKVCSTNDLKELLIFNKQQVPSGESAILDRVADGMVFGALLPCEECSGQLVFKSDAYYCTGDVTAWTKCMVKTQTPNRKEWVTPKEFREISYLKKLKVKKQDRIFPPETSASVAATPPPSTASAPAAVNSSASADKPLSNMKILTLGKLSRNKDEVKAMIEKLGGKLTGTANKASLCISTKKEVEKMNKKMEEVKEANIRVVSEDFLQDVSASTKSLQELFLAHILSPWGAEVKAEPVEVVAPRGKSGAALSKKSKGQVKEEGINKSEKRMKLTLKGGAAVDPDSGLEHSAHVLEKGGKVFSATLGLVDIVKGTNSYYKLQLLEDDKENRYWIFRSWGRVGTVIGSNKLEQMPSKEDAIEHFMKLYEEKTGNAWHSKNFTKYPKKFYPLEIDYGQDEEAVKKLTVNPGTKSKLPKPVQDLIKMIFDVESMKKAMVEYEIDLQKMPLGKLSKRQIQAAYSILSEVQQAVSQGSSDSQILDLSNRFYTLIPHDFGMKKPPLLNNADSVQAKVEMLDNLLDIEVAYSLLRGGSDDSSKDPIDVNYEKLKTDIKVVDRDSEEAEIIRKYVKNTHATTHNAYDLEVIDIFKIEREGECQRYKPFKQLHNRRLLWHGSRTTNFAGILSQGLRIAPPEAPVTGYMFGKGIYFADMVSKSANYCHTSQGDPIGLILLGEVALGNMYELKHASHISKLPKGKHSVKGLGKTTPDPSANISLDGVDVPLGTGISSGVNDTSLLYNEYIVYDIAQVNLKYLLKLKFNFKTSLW
Experimental: PARP1 chemical fluorescence detection kit was purchased from BPS Bioscience. The histone solution in the kit was diluted 5× with 1×PBS, and 25 μL of the diluted histone solution was added to a microwell plate and incubated overnight at 4° C. After the incubation, the plate was washed three times with PBST (0.05% Tween-20). 100 μL of the blocking solution was added to the microwell plate and incubated at 25° C. for 90 minutes. After the incubation was completed, the plate was washed three times with PBST. 2.5 μL of compounds at different concentrations diluted in test buffer and 12.5 μL of substrate mixed solution (1.25 μL 10×PARP test buffer; 1.25 μL 10×PARP test mixed solution; 2.5 μL Activated DNA, 7.5 μL double-distilled water) were added to the microwell plate. The PARP1 enzyme was diluted to 2 ng/μL, 10 μL of the diluent was added to the microwell plate, and the reaction system was incubated at 25° C. for 60 minutes.
After the incubation was completed, the plate was washed three times with PBST. Streptavidin-HRP was diluted 50× with a blocking solution, and 25 μL of the diluent was added to the microwell plate and incubated at 25° C. for 30 minutes. After the incubation, the plate was washed three times with PBST. ELISA ECL substrate A and substrate B were mixed at a ratio of 1:1 (v/v), 50 μL of the mixture was added to the microwell plate, and the chemiluminescence value was read.
Curve fitting was performed by four parameters (log(inhibitor) vs. response—Variable slope) using GraphPad Prism software, and the IC50 value was calculated.

MDA-MB-436 cells = assay: MDA-MB-436 cell activity test (CellTiter-Glo, 7 days); assay type: cell-based, Human; settings: for IC50: 7 days incubation, read-out: MDA-MB-436 cell inhibitory activity IC50
Experimental: On day 1, the cells in the exponential growth phase were collected, and the cell suspension was adjusted to 4000 cells/135 μL with the culture medium. 135 μL of the cell suspension was added to each well of a 96-well cell culture plate and incubated overnight. On day 2, compounds at different concentrations were added, and the plate was placed in the incubator and incubated for 7 days. After the incubation was completed, according to operation instructions for a CellTiter-Glo kit (Promega, G7573), 75 μL of CTG solution, which was already pre-melted and equilibrated to room temperature, was added to each well, and the mixture was uniformly mixed for 2 min using a microplate shaker. The plate was placed at room temperature for 10 min, and then […] were measured using an Envision2104 plate reader (PerkinElmer). […] The IC50 value was calculated using GraphPad Prism software.

## CCc1cc2ncc(CN3CCN(c4ccc(C(=O)NC5CC5)nc4)CC3)cc2[nH]c1=O [Compound 4]
[1]
  body weight of the animals: no significant decrease

## CCC1=CC2N=CC(CN3CCN(c4ccc(C(=O)C[C@@H]5C[C@@H]5F)nc4)CC3)=CC2CC1=O (stereo partly drawn) [Compound 11]
PARP1 enzyme
  IC50: 540 pM
MDA-MB-436 cells; 10 μM, MDA-MB-436 cells
  Max inh. % 10 μM: 85.2%
MDA-MB-436 cells
  IC50: 6000 pM

## CCc1cc2ncc(CN3CCN(c4ccc(NC(=O)[C@H]5C[C@H]5F)nc4)CC3)cc2[nH]c1=O [Compound 34]
PARP1 enzyme
  IC50: 660 pM

## CCc1cc2ncc(CN3CCN(c4ccc(NC(=O)[C@@H]5C[C@H]5F)nc4)CC3)cc2[nH]c1=O [Compound 35]
PARP1 enzyme
  IC50: 970 pM

## CCc1cc2ncc(CN3CCN(c4ccc(C(=O)NC5C[C@H]5F)nc4)CC3)cc2[nH]c1=O (stereo partly drawn) [Compound 41]
MDA-MB-436 cells; Homo sapiens, MDA-MB-436, 168 h
  IC50: 2300 pM
MDA-MB-436 cells; Homo sapiens, 10 μM, MDA-MB-436 cells, read-out: Max inh. % 10 μM
  inhibition at 10 µM: 92.1%

## COc1cc2ncc(CN3CCN(c4ccc(C(=O)NC5CN(c6ccccc6)C5)nc4)CC3)cc2[nH]c1=O [Compound 46]
PARP1 enzyme
  IC50: 560 pM
